Reference: patent US9839618B2, “Compositions and methods relating to proliferative diseases” (The Penn State Research Foundation, priority 2010, dated 2017)
Like-named read-outs stand apart in the source and are kept apart here.

Tests used:
Type in all cases: cell-based
[1] = tested on: FF2441 normal human fibroblasts; experiment: MTS assay viability IC50, normal fibroblasts
Procedure: The efficacy of leelamine to kill other cancer types is measured and the IC50 for cell lines derived from carcinomas of breast, lung, prostate, connective tissue, pancreas and colon determined. The MTS assay as described in Sharma, A. et al., Clin Cancer Res, 2009, 15:1674-85; and Madhunapantula, S. V. et al., Mol Cancer Ther, 2008, 7:1297-308 is used to establish the IC50 at 24, 48 and 72 hours of leelamine treatment for normal human epidermal melanocytes (FOM103), normal skin fibroblast cells (FF2441), normal skin keratinocytes (HFK) and compared to melanocytic lesion cells from the radial-, vertical- and metastatic melanoma stages. 5×10^3 cells per well in 100 μL of media are plated and grown in a 96-well plate for 48 to 72 hours and treated with either DMSO vehicle control or 0.62 to 40 μmol/L of leelamine for 24, 48 or 72 hours. IC50 values for each compound in μmol/L for respective cell lines are measured from three independent experiments using GraphPad Prism version 4.01 (GraphPad Software, La Jolla, Calif.). Leelamine is found to be not toxic to normal cells and effective to kill melanoma cells as well as non-melanoma cancer cells as shown in Table 1 in FIG. 20. Leelamine is 3- to 4-fold more specific at killing metastatic melanoma than normal cells, supporting cancer therapeutic utility at concentrations<2 μmol/L.
5×10^3 cells per well in 100 μL of media are plated and grown in a 96-well plate for 48 to 72 hours and treated with either DMSO vehicle control or 0.62 to 40 μmol/L of leelamine for 24, 48 or 72 hours. IC50 values for each compound in μmol/L for respective cell lines are measured from three independent experiments using GraphPad Prism version 4.01 (GraphPad Software, La Jolla, Calif.). […]
(§1) Dehydroabietylamine, its N-substituted derivatives and the corresponding dihydroabietylamine and its N-substituted derivatives are tested for their capability to inhibit cell growth of cancer cell lines, including melanoma (UACC 903, 1205Lu), breast (MCF-7), fibrosarcoma (HT-1080), colon (Caco-2), and prostate (PC-3) cancer cell lines. Viability and IC50 of normal human fibroblasts and cell lines from melanoma and other malignancies following treatment with all the agents are measured using the MTS assay (Promega, Madison, Wis.). Human fibroblast FF2441 cells, metastatic melanoma cell lines 1205 Lu and UACC 903 as well as cancer cell lines representing sarcoma (HT-1080), prostate (PC-3, LNCaP), breast (MCF-7) and lung (A-549) are maintained in DMEM (Invitrogen, Carlsbad, Calif.) supplemented with 10% FBS (Hyclone, Logan, Utah) in a 5% CO2 atmosphere, humidified 37° C. incubator. 5×10^3 cells per well in 100 μL of media are plated and grown in a 96-well plate for 48 to 72 h and treated with either DMSO vehicle control or 0.62 to 40 μmol/L for 24, 48 or 72 h. IC50 values for each compound in […] for respective cell lines are measured from three independent experiments using GraphPad Prism version 4.01 (GraphPad Software, La Jolla, Calif.). FIG. 52 is a graph showing IC50 values for leelamine and compounds 4a, 4b and 5a in treated fibroblasts (FF2441) compared to melanoma cells. Selectivity ratio here is defined as ratio of activity against fibroblasts compared to activity against melanoma cells. Leelamine is relatively selective with a ratio of >6 and >4 for UACC903 and 1205Lu melanoma cells. The selectivity ratio of compound 4a is ˜4 and ˜3 for UACC903 and 1205Lu and for compound 4b is ˜4 for both cell lines. The selectivity ratio of compound 5a is ˜4 for UACC903 and >2 for 1205Lu cells.

[2] = tested on: Prostate (LnCap) cancer cell line; experiment: MTS assay viability IC50, LnCap; settings: Homo sapiens, Table 5
Procedure: as §1

[3] = tested on: Fibrosarcoma (HT-1080) cancer cell line; experiment: MTS assay viability IC50, HT-1080; settings: Homo sapiens, Table 5, read-out: IC50 Fibro Sarcoma (HT-1080)
Procedure: as §1

[4] = Homo sapiens, FF2441, Table 5, read-out: IC50 Fibroblast FF2441

Row | SMILES | IC50 [1, 4] [µM] | IC50 [2] [µM] | IC50 [3] [µM] | IC50 ([1]; Homo sapiens, FF2441, Table 4, read-out: IC50 Normal fibroblast FF2441) [µM] | IC50 ([1]; Table 6, read-out: IC50 Normal fibroblast FF2441) [µM]
1 | CC(C)c1ccc2c(c1)CCC1[C@](C)(CNC(=O)C(F)(F)F)CCC[C@]21C (stereo partly drawn) [Compound 5a, N-{[(1R,4aS)-1,4a-dimethyl-7-(propan-2-yl)-1,2,3,4,4a,9,10,10a-octahydrophenanthren-1-yl]methyl}-2,2,2-trifluoroacetamide] | 5.17 ± 0.02 | 8.63 ± 0.97 | 3.73 ± 0.54 | – | –
2 | CC(C)c1ccc2c(c1)CCC1[C@](C)(CN)CCC[C@]21C (stereo partly drawn) [Leelamine, [(1R,4aS)-1,4a-dimethyl-7-(propan-2-yl)-1,2,3,4,4a,9,10,10a-octahydrophenanthren-1-yl]methanamine] | 8.91 ± 0.57 | 10.9 ± 2.11 | 3.75 ± 0.54 | – | –
3 | CC(C)C1=CC2=CCC3[C@](C)(CN)CCC[C@]3(C)C2CC1 (stereo partly drawn) [Compound 4a, {[(1R,4aR)-1,4a-dimethyl-7-(propan-2-yl)-1,2,3,4,4a,4b,5,6,10,10a-decahydrophenanthren-1-yl]methyl}amine] | 8.33 ± 0.43 | 14.8 ± 1.99 | 6.29 ± 1.1 | – | –
4 | CC(C)C1=CC2=CCC3[C@](C)(CCC[C@@]3(C)C(=O)O)C2CC1 (stereo partly drawn) [Abietic acid, (1R,4aR)-1,4a-dimethyl-7-(propan-2-yl)-1,2,3,4,4a,4b,5,6,10,10a-decahydrophenanthrene-1-carboxylic acid, reference compound] | > 100 | > 100 | > 100 | > 100 | > 100
